Data: US8404664B2, “Phosphonated Rifamycins and uses thereof for the prevention and treatment of bone and joint infections” (Targanta Therapeutics, Inc., priority 2005, dated 2013)
≈ marks a conversion by molar mass, not a printed value.

How the values were obtained:
[1] = tested on: S. aureus ATCC 13709; assay: Antibacterial susceptibility (MIC), NCCLS broth microdilution; assay type: cell-based; details: for Antibacterial activity (in words, summary of Table 1): summary over the strains of Table 1
Procedure: (§1) Susceptibility of S. aureus strains to the known antibiotics and synthesized compounds was determined by following the guidelines set by NCCLS (M26-A). Compounds were diluted two-fold serially in DMSO and transferred to cation-adjusted Mueller Hinton broth (CAMHB; Becton Dickinson). 50 μL of compounds diluted in CAMHB was mixed with 100 μL of bacteria diluted in CAMHB in 96-well microtiter plates. The final concentration of micro-organisms in the assay was 5×10^5 c.f.u. per mL and the final concentration of DMSO in the assay was 1.25%. Assays were set up in duplicate and incubated at 37° C. for 18 h. The lowest concentration of compound that inhibited visible growth was reported as the minimum inhibitory concentration (MIC).

[2] = tested on: S. aureus ATCC 43300 (Fluoroquinolone sensitive MRSA); assay: as above; assay type: cell-based
Procedure: as §1

[3] = tested on: S. aureus BK85 (Fluoroquinolone resistant MRSA); assay: as above; assay type: cell-based
Procedure: as §1

[4] = tested on: S. aureus RN4220; assay: as above; assay type: cell-based; details: CAMHB, 37° C., 18 h
Procedure: as §1

[5] = tested on: E. coli LBB925 (tolC mutant); assay: as above; assay type: cell-based; details: tolC mutant
[6] = Regeneration of drug from bone powder-bound prodrug; assay type: in vitro ADME; details: for % Conversion of bone-bound prodrug to parent drug: 24 h incubation, 37° C.; for Impact of the medium on the rate of regeneration of parent drug (in words): serum compared to PBS
Procedure: Amounts of parent drug “regenerated” from the phosphonated prodrug were measured as follows. Washed bone powder-bound prodrugs from the above experiment were resuspended in 400 μL PBS+2% DMSO or in 400 μL 50% (v/v in PBS+2% DMSO) human or rat serum. The suspension was incubated overnight at 37° C., centrifuged at 13,000 rpm for 2 min and the supernatant was recovered. The amount of regenerated parent drug in the supernatant was determined by measurements using the microbiological assay that was previously described for the prodrugs themselves. The amount of prodrug was deduced from standard curves of known amounts of parent drug that were used as reference for each experiment.

[7] = tested on: S. aureus ATCC 13709 Novobiocin resistant mutant (bone infection); assay: Prophylactic efficacy in rat model of S. aureus bone infection; assay type: in vivo
Procedure: Specifically, a spontaneous Novobiocin resistant mutant strain of S. aureus ATCC 13709 (a clinical osteomyelitis isolate), was grown overnight at 37° C. in brain heart infusion broth (BHIB). After 16 h of growth, cells were subcultured into fresh BHIB and incubated for 4 to 5 h at 37° C. The cells were washed twice with phosphate-buffered saline (PBS) and resuspended in BHIB supplemented with 10% (vol./vol.) fetal bovine serum at a density of approximately 10^10 colony forming units (CFU)/ml (based upon turbidimetry). The suspension was aliquoted and a portion was used to check the CFU count. The culture was stored frozen (−80° C.) and was used without subculture. For use as an inoculum the culture was thawed, diluted in PBS and kept in an ice bath until it was used.
Animals were infected as described by O'Reilly et al. (Antimicrobial Agents and Chemotherapy (1992), 36(12): 2693-97) to generate the bone infection. Female CD rats (age, 57 to 70 days; n=5/group; Charles River, St-Constant, Canada) were anaesthetized by isofluorane before and during the surgery. Following complete induction of anesthesia, the rat was placed ventral side up and hair was shaved from the surgical site. The skin over the leg was cleaned and disinfected (proviodine-ethanol 70%). A longitudinal incision below the knee joint was made in the sagital plane. The incision was made over the bone below the “knee joint” (tibia head or condyle) but not completely extending to the ankle. A high speed drill fitted with a 2 mm bulb bit was used to drill a hole into the medullar cavity of the tibia. Rats were injected intra-tibially with 0.05 ml 5% sodium morrhuate (sclerosing agent) and then with 0.05 ml of S. aureus suspension (ca. 2×10^7 CFU/rat). The hole was sealed by applying a small amount of dry dental cement which immediately absorbs fluids and adheres to the site. The wound was closed using 3 metal skin clips. Moxifloxacin (as a positive control) was injected once at 10 mg/kg intravenously 1 h postinfection in saline, while the Rifamycin derived prodrugs (prepared in 0.9% saline) were injected at the dose indicated in Table 3 as a single intravenous bolus at different time points prior to the infection.
Infected rats were sacrificed by CO2 asphyxiation 24 h postinfection to monitor the bacterial CFU count. Infected tibiae were removed, dissected free of soft tissue, and weighed. The bones were ground, resuspended in 5 ml 0.9% NaCl, serially diluted and processed for quantitative cultures. For compounds 50, 68 and 81, 1 ml of the 0.9% NaCl solution was added to 50 mg of charcoal before serial dilutions. Treatment efficacy was measured in terms of Log viable bacteria (Log CFU per gram of bone). […] The limit of detection is 2 Log CFU. […] Differences were considered significant when the P value was <0.05 when comparing treated infected animals to the untreated infected ones. The doses used, the amount of time separating the treatment from the time of infection and the treatment outcomes are shown in Table 3.

[8] = tested on: S. aureus ATCC 13709 Novobiocin and Rifampicin resistant variant; assay: microbe, parasite or virus in culture; assay type: cell-based; details: for Minimum inhibitory concentration, S. aureus ATCC 13709 variant: Novobiocin and Rifampicin resistant variant
Procedure: as §1

[9] = tested on: S. aureus ATCC 13709; assay: Antibacterial susceptibility (MIC) in the presence of serum; assay type: cell-based
Procedure: as §1
Susceptibility testing experiments were also carried out in the presence of serum.
These experiments were carried out similar to the susceptibility testing with the following modifications. 75 μL of compounds diluted in CAMHB was mixed with 75 μL of bacteria diluted in 100% serum from any given source (commercial pooled mouse serum (MS) and human serum (HS), Equitech-Bio Inc.) or diluted in 8% purified human serum albumin (HSA) (Calbiochem). The final concentration of animal serum in the assay was 50% and the final concentration of purified human serum albumin in the assay was 4%; the concentrations of all other components were identical to those described for susceptibility testing.

CO[C@H]1/C=C/O[C@@]2(C)Oc3c(C)c(O)c4c(c3C2=O)C2=NC3(CCN(CC(C)C)CC3)NC2=C(NC(=O)/C(C)=C\C=C\[C@H](C)[C@H](OC(=O)CNC(=O)CC(P(=O)(O)O)P(=O)(O)O)[C@@H](C)[C@@H](O)[C@@H](C)[C@H](OC(C)=O)[C@@H]1C)C4=O [Compound 21, 21-O-(N-(3,3-Bisphosphonopropanoyl)-glycinoyl)-1′,4-didehydro-1-deoxy-1,4-dihydro-5′-(2-methylpropyl)-1-oxorifamycin XIV]
Minimum inhibitory concentration, S. aureus ATCC 13709 [1]: 16 µg/mL (≈ 14.3 µM)
Minimum inhibitory concentration, S. aureus ATCC 43300 [2]: 16 µg/mL (≈ 14.3 µM)
Minimum inhibitory concentration, S. aureus BK85 [3]: 16 µg/mL (≈ 14.3 µM)
Minimum inhibitory concentration, S. aureus RN4220 [4]: 32 µg/mL (≈ 28.6 µM)
Minimum inhibitory concentration, E. coli LBB925 [5]: >128 µg/mL
Regeneration of parent drug once bound to bone (in words) [6]: not able to regenerate
% Conversion of bone-bound prodrug to parent drug ([6]; 50% Rat Serum): 0.02%
% Conversion of bone-bound prodrug to parent drug ([6]; PBS): <lod
Impact of the medium on the rate of regeneration of parent drug (in words) [6]: not significantly impacted
Prophylactic effect (in words) ([7]; rat bone infection, doses and times of Table 3, t-test p<0.05): lacks efficacy
Measured bacterial titer ([7]; rat tibia 24 h postinfection, single dose 12 mg/kg parent drug equivalent, 1 day prior to infection): 6.59 ± 0.90 Log CFU/g of bone

CCN(CC)CC.CCN(CC)CC.CO[C@H]1/C=C/O[C@@]2(C)Oc3c(C)c(O)c4c(c3C2=O)C2=NC3(CCN(CC(C)C)CC3)NC2=C(NC(=O)/C(C)=C\C=C\[C@H](C)[C@H](OC(=O)CCC(=O)NCCCC(=O)NC(P(=O)(O)O)P(=O)(O)O)[C@@H](C)[C@@H](O)[C@@H](C)[C@H](OC(C)=O)[C@@H]1C)C4=O [Compound 45, 21-O-(3-(3-((bisphosphonomethyl)carbamoyl)propylcarbamoyl)propanoyl)-1′,4-didehydro-1-deoxy-1,4-dihydro-5′-(2-methylpropyl)-1-oxorifamycin XIV]
Minimum inhibitory concentration, S. aureus ATCC 13709 [1]: 32 µg/mL
Antibacterial activity (in words, summary of Table 1) [1]: near complete loss of activity
Minimum inhibitory concentration, S. aureus ATCC 43300 [2]: 64 µg/mL
Minimum inhibitory concentration, S. aureus BK85 [3]: 64 µg/mL
Minimum inhibitory concentration, S. aureus RN4220 [4]: 64 µg/mL
Activity against the Rifampicin resistant variant of S. aureus ATCC13709 (in words) [8]: complete lack of activity
Minimum inhibitory concentration, S. aureus ATCC 13709 variant [8]: >128 µg/mL
Impact of serum on the MICs (in words) [9]: no impact
Minimum inhibitory concentration, S. aureus ATCC 13709 + 50% Human Serum [9]: 64 µg/mL
Minimum inhibitory concentration, S. aureus ATCC 13709 + 50% Mouse Serum [9]: 128 µg/mL
Minimum inhibitory concentration, E. coli LBB925 [5]: >128 µg/mL
Regeneration of parent drug once bound to bone (in words) [6]: not able to regenerate
% Conversion of bone-bound prodrug to parent drug ([6]; 50% Rat Serum): 0.002%
% Conversion of bone-bound prodrug to parent drug ([6]; PBS): <lod
Impact of the medium on the rate of regeneration of parent drug (in words) [6]: not significantly impacted

CCN(CC)CC.CCN(CC)CC.CO[C@H]1/C=C/O[C@@]2(C)Oc3c(C)c(O)c4c(=O)c(c5oc6cc(N7CCN(CC(C)C)CC7)cc(O)c6nc-5c4c3C2=O)NC(=O)/C(C)=C\C=C\[C@H](C)[C@H](OC(=O)CCC(=O)NCCC(=O)NC(P(=O)(O)O)P(=O)(O)O)[C@@H](C)[C@@H](O)[C@@H](C)[C@H](OC(C)=O)[C@@H]1C [Compound 78, 21-O-(3-(2-((bisphosphonomethyl)carbamoyl)ethylcarbamoyl)propanoyl)-1′,4-Didehydro-1-deoxy-1,4-dihydro-3′-hydroxy-5′-[4-(2-methylpropyl)-1-piperazinyl]-1-oxorifamycin VIII]
Minimum inhibitory concentration, S. aureus ATCC 13709 [1]: 8 µg/mL
Antibacterial activity (in words, summary of Table 1) [1]: near complete loss of activity
Minimum inhibitory concentration, S. aureus ATCC 43300 [2]: 8 µg/mL
Minimum inhibitory concentration, S. aureus BK85 [3]: 16 µg/mL
Minimum inhibitory concentration, S. aureus RN4220 [4]: 16 µg/mL
Activity against the Rifampicin resistant variant of S. aureus ATCC13709 (in words) [8]: complete lack of activity
Minimum inhibitory concentration, S. aureus ATCC 13709 variant [8]: >128 µg/mL
Minimum inhibitory concentration, S. aureus ATCC 13709 + 50% Human Serum [9]: >128 µg/mL
Minimum inhibitory concentration, S. aureus ATCC 13709 + 50% Mouse Serum [9]: >128 µg/mL
Minimum inhibitory concentration, S. aureus ATCC 13709 + 50% Rat Serum [9]: >128 µg/mL
Minimum inhibitory concentration, E. coli LBB925 [5]: >128 µg/mL
Regeneration of parent drug once bound to bone (in words) [6]: not able to regenerate
% Conversion of bone-bound prodrug to parent drug ([6]; 50% Rat Serum): 0.01%
% Conversion of bone-bound prodrug to parent drug ([6]; PBS): <lod
Impact of the medium on the rate of regeneration of parent drug (in words) [6]: significant acceleration

CO[C@H]1/C=C/O[C@@]2(C)Oc3c(C)c(O)c4c(=O)c(c5oc6cc(N7CCN(CC(C)C)CC7)cc(O)c6nc-5c4c3C2=O)NC(=O)/C(C)=C\C=C\[C@H](C)[C@H](OC(=O)COC(=O)CCC(=O)NC(P(=O)(O)O)P(=O)(O)O)[C@@H](C)[C@@H](O)[C@@H](C)[C@H](OC(C)=O)[C@@H]1C [Compound 84, 21-O-(2-((3-(bisphosphonomethyl)carbamoyl)propanoyloxy)acetyl)-1′,4-Didehydro-1-deoxy-1,4-dihydro-3′-hydroxy-5′-[4-(2-methylpropyl)-1-piperazinyl]-1-oxorifamycin VIII]
Minimum inhibitory concentration, S. aureus ATCC 13709 [1]: 1 µg/mL (≈ 0.786 µM)
Minimum inhibitory concentration, S. aureus ATCC 43300 [2]: 1 µg/mL (≈ 0.786 µM)
Minimum inhibitory concentration, S. aureus BK85 [3]: 1 µg/mL (≈ 0.786 µM)
Minimum inhibitory concentration, S. aureus RN4220 [4]: 1 µg/mL (≈ 0.786 µM)
Activity against the Rifampicin resistant variant of S. aureus ATCC13709 (in words) [8]: complete lack of activity
Minimum inhibitory concentration, S. aureus ATCC 13709 variant [8]: >128 µg/mL
Minimum inhibitory concentration, S. aureus ATCC 13709 + 50% Human Serum [9]: 16 µg/mL
Minimum inhibitory concentration, S. aureus ATCC 13709 + 50% Mouse Serum [9]: 16 µg/mL
Minimum inhibitory concentration, S. aureus ATCC 13709 + 50% Rat Serum [9]: 1 µg/mL
Minimum inhibitory concentration, E. coli LBB925 [5]: >128 µg/mL
Regeneration of parent drug once bound to bone (in words) [6]: not able to regenerate
% Conversion of bone-bound prodrug to parent drug ([6]; 50% Rat Serum): 0.12%
% Conversion of bone-bound prodrug to parent drug ([6]; PBS): <lod
Impact of the medium on the rate of regeneration of parent drug (in words) [6]: significant acceleration
